Experimental findings from ChEMBL document CHEMBL3991601, “The target landscape of clinical kinase drugs” (Science, 2017) are described below.

Structures are written as SMILES. Calls of active or inactive are those of the source.

For assay [1], the target named is Guanine nucleotide-binding protein G(i) subunit alpha-2 (Homo sapiens, UniProt P04899).
For assay [2], the target named is Serine/threonine-protein kinase 24 (Homo sapiens, UniProt Q9Y6E0).
Assay [3] concerns the target Choline-phosphate cytidylyltransferase A (Homo sapiens, UniProt P49585).
Assay [4] concerns the target G protein-coupled receptor kinase 6 (Homo sapiens, UniProt P43250).
Assay [5] has as its target Dual specificity protein kinase CLK3 (Homo sapiens, UniProt P49761). In kind it is subcellular, K-562, COLO 205, SK-N-BE(2) and MV-4-11, Cell lysate. The conditions noted are these: read-out: Kd apparent.
The target in assay [6] is Obg-like ATPase 1 (Homo sapiens, UniProt Q9NTK5).
Sequence of Obg-like ATPase 1 (Q9NTK5 whole entry, looked up): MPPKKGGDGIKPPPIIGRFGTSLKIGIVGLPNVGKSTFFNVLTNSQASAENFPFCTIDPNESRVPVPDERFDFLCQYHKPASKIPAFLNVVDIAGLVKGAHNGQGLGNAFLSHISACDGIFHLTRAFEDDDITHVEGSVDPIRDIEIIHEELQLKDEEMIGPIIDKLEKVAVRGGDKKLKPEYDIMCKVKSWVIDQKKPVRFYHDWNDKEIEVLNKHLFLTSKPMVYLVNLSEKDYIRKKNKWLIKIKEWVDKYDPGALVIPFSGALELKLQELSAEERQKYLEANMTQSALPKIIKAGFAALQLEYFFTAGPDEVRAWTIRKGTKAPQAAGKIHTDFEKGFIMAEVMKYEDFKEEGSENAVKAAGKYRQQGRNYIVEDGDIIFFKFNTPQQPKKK
Assay [7] deals with Cell division cycle 7-related protein kinase (Homo sapiens, UniProt O00311).
For assay [8], the target named is Protein kinase C theta type (Homo sapiens, UniProt Q04759).
Sequence of Protein kinase C theta type (Q04759 whole entry): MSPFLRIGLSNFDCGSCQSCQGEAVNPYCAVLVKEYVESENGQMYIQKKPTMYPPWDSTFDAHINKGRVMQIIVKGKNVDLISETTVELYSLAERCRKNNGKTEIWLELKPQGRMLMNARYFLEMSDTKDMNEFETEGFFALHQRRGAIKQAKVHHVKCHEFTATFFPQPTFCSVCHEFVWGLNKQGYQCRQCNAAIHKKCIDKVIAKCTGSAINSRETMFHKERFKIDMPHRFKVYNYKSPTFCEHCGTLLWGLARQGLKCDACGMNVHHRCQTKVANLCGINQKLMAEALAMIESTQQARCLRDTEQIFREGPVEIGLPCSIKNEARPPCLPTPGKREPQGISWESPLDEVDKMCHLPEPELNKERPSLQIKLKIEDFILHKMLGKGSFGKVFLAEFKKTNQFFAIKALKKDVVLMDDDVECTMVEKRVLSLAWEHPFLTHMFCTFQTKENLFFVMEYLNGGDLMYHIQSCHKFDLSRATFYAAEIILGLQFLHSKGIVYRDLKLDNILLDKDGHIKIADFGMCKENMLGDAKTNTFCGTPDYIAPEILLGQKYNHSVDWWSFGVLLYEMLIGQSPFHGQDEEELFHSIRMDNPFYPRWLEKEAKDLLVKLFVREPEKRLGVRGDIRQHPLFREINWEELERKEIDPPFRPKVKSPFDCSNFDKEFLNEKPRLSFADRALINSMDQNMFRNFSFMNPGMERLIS
Assay [9] deals with Mitogen-activated protein kinase 14 (Homo sapiens, UniProt Q16539).
Sequence of Mitogen-activated protein kinase 14 (Q16539 whole entry): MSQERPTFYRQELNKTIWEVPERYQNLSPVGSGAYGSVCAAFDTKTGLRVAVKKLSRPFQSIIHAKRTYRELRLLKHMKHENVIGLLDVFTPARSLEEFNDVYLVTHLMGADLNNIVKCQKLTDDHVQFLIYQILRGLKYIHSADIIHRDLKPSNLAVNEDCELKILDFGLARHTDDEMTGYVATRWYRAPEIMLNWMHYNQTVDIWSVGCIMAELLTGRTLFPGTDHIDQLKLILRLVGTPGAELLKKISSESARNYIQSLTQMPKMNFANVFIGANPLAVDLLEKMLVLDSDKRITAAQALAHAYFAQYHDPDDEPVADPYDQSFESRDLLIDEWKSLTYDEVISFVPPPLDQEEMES
The target in assay [10] is Proto-oncogene tyrosine-protein kinase receptor Ret (Homo sapiens, UniProt P07949).
The target in assay [11] is Ephrin type-A receptor 7 (Homo sapiens, UniProt Q15375).
Assay [12] deals with Epidermal growth factor receptor (Homo sapiens, UniProt P00533).
Assay [13] concerns the target Dual specificity protein kinase CLK2 (Homo sapiens, UniProt P49760).
Assay [14] concerns the target T1, Long-chain-fatty-acid--CoA ligase 5 (Homo sapiens, UniProt Q9ULC5).
T1 sequence (Q9ULC5 whole entry): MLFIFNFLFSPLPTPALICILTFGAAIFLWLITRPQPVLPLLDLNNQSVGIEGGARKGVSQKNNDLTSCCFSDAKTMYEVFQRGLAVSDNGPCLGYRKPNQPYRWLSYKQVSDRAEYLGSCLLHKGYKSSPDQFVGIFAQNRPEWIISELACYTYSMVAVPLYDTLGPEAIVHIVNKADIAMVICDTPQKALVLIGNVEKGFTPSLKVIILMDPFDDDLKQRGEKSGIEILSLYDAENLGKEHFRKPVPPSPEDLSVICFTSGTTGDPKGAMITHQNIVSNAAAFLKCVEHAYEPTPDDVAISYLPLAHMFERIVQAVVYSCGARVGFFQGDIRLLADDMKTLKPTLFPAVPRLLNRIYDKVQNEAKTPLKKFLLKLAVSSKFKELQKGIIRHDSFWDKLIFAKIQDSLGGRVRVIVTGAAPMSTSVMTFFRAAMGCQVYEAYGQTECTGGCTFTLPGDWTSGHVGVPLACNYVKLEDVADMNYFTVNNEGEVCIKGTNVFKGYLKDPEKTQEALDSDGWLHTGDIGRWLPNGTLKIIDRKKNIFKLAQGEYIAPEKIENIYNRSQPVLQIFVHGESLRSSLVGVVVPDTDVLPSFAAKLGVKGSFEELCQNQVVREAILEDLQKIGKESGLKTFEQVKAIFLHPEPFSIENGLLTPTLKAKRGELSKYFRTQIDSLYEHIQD

For assay [15], the target named is Phosphatidylethanolamine-binding protein 1 (Homo sapiens, UniProt P30086).
Sequence of Phosphatidylethanolamine-binding protein 1 (P30086 whole entry): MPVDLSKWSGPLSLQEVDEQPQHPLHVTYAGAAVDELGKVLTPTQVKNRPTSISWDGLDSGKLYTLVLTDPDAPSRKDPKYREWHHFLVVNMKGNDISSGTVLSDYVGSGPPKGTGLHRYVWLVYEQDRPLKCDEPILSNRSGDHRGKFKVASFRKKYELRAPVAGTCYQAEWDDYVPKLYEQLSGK
The target in assay [16] is Serine/threonine-protein kinase PLK1 (Homo sapiens, UniProt P53350).
Assay [17] concerns the target Membrane-associated progesterone receptor component 1 (Homo sapiens, UniProt O00264).
Assay [18] has as its target T2, Adenine phosphoribosyltransferase (Homo sapiens, UniProt P07741).
T2 sequence (P07741 whole entry): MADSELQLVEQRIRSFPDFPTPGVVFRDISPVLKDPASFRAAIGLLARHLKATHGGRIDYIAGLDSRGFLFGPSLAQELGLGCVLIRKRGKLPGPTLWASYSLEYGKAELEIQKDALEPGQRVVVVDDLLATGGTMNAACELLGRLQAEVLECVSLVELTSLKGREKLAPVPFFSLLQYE

The target of assay [19] is T3, UMP-CMP kinase (Homo sapiens, UniProt P30085).
T3 sequence (P30085 whole entry): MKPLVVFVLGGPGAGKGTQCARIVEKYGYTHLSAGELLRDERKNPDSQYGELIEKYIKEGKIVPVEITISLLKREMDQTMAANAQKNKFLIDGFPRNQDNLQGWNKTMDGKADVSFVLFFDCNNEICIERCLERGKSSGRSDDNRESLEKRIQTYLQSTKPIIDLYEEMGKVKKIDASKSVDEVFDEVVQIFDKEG
Further: in the data inactive means no Kd found up to 30 µM.

Sequence of Dual specificity protein kinase CLK3 (P49761 whole entry): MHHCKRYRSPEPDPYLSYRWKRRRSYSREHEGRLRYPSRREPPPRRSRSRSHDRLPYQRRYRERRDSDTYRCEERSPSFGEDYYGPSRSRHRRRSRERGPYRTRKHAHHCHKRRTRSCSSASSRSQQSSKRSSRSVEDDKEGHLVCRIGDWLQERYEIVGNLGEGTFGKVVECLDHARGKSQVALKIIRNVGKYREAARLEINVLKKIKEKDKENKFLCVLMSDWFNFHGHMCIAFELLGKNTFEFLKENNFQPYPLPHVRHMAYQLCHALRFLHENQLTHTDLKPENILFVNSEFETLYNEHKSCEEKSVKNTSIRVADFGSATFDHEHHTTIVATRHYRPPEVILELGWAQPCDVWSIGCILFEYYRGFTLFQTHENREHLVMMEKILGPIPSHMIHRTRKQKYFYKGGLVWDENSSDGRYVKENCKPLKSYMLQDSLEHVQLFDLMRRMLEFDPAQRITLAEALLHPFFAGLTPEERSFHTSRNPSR
Sequence of Choline-phosphate cytidylyltransferase A (P49585 whole entry): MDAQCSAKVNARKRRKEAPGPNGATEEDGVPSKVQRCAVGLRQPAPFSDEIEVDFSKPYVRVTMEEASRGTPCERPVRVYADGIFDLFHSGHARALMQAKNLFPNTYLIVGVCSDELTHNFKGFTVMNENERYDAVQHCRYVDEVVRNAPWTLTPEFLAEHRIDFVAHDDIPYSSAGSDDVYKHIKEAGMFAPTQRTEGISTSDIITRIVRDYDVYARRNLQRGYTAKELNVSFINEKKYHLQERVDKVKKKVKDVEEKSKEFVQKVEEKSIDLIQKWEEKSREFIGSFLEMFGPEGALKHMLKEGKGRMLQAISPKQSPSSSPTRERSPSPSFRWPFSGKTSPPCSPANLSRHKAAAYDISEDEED
Sequence of Serine/threonine-protein kinase 24 (Q9Y6E0 whole entry): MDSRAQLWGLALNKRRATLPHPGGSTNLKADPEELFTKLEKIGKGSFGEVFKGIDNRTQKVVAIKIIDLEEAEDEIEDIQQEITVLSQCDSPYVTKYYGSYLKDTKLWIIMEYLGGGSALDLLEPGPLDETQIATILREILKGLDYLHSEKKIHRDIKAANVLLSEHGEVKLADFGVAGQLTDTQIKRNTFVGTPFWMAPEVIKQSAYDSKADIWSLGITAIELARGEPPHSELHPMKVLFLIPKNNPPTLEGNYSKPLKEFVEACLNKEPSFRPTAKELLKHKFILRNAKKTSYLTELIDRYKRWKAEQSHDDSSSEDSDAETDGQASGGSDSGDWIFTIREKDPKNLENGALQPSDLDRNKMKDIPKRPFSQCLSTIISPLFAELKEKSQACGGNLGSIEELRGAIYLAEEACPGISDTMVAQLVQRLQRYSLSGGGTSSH
Sequence of G protein-coupled receptor kinase 6 (P43250 whole entry): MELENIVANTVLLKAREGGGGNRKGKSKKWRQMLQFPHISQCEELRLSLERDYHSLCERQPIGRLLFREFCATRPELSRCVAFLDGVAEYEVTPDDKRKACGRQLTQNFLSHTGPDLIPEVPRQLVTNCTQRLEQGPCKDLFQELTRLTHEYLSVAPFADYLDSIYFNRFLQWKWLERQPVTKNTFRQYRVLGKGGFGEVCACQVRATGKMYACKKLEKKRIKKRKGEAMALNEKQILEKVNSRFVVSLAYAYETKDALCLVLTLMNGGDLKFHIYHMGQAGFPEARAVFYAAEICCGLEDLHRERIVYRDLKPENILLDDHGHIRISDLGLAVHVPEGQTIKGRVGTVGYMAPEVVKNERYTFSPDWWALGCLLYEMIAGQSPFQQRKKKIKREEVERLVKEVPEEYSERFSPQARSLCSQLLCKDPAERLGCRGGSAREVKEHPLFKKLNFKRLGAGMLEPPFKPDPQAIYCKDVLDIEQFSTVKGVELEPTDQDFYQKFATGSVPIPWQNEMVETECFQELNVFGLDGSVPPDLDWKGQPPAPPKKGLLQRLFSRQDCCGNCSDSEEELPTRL
Sequence of Dual specificity protein kinase CLK2 (P49760 whole entry): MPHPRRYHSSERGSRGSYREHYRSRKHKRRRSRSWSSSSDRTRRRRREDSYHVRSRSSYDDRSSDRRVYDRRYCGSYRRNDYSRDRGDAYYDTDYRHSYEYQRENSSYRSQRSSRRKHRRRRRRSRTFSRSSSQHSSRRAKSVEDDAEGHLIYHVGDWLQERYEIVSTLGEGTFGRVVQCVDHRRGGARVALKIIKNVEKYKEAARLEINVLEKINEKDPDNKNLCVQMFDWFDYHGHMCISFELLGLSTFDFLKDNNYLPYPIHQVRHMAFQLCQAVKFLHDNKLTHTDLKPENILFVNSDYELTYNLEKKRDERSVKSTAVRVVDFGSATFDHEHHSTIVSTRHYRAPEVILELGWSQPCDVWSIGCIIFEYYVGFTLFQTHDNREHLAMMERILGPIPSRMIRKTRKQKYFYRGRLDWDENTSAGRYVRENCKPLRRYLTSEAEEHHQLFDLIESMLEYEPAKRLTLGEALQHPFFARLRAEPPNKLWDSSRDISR
Sequence of Guanine nucleotide-binding protein G(i) subunit alpha-2 (P04899 whole entry): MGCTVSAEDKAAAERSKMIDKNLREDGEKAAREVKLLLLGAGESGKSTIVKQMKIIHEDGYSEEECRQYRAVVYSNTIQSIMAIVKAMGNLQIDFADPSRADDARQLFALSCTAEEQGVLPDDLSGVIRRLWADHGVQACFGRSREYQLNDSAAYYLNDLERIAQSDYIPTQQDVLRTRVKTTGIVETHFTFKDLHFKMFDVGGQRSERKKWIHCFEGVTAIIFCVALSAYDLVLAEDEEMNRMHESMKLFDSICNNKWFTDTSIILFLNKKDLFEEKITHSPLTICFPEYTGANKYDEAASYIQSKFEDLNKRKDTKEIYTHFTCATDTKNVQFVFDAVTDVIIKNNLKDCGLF
Sequence of Membrane-associated progesterone receptor component 1 (O00264 whole entry): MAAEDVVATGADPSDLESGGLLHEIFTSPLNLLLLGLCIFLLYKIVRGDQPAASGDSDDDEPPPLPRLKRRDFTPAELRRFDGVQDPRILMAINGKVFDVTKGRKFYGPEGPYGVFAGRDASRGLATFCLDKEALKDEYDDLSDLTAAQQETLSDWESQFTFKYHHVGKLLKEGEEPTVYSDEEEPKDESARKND

With `COc1cc(OC)c(/C=C/S(=O)(=O)Cc2ccc(OC)c(NCC(=O)O)c2)c(OC)c1` [RIGOSERTIB], the Kd was > 30 µM (inactive) in [1]; > 30 µM (inactive) in assay [2]; > 30 µM (inactive) in assay [3]; > 30 µM (inactive) in [4]; 0.04 µM in assay [5]; > 30 µM (inactive) in [6]. In addition, the Kd in assay [7], in assay [8], in assay [9], in assay [10], in assay [11] and in [12] was > 30 µM (inactive) throughout. Further, in [13], the Kd is > 30 µM (inactive).
Take `O=C(c1ccc(F)c(F)c1Nc1ccc(I)cc1F)N1CC(O)([C@@H]2CCCCN2)C1` [COBIMETINIB]: the Kd in [2], in assay [3], in assay [14], in assay [8], in [9] and in [10] was > 30 µM (inactive) in each case. Also, the Kd in assay [15], in [16], in assay [11], in assay [12], in [17] and in assay [13] was > 30 µM (inactive) in each case.
`CCS(=O)(=O)N1CC(CC#N)(n2cc(-c3ncnc4[nH]ccc34)cn2)C1` [BARICITINIB]: the Kd in assay [1], in assay [2], in assay [4], in assay [5], in assay [14] and in assay [6] was > 30 µM (inactive) throughout. Further, the Kd in assay [8] is > 30 µM (inactive); in assay [9] it was > 30 µM (inactive); in assay [18] it was > 30 µM (inactive); in [10], 0.973 µM (active); in assay [15] it was > 30 µM (inactive); in assay [11], > 30 µM (inactive). The Kd in [12], in [17], in assay [13] and in assay [19] was > 30 µM (inactive) in each case.
For `O=C(Nc1cccc(Cl)c1)Nc1ncc(CCNc2ncnc3ccsc23)s1` [SNS-314], the Kd in assay [1], in [2], in assay [4], in assay [5], in [14] and in assay [6] was > 30 µM (inactive) each time. Moreover, the Kd in [18], in [15], in assay [11], in assay [17] and in assay [19] was > 30 µM (inactive) each time.
As for `COc1cc2nccc(Oc3ccc(NC(=O)Nc4cc(C)on4)c(Cl)c3)c2cc1OC` [TIVOZANIB], the Kd in [1], in [2], in [3], in assay [4], in assay [14] and in assay [6] was > 30 µM (inactive) in each case. Also, the Kd in assay [8] is > 30 µM (inactive); in assay [9], > 30 µM (inactive); in assay [18], > 30 µM (inactive); in assay [15], 0.003 µM; in assay [16] it was > 30 µM (inactive); in [17] it was > 30 µM (inactive). In addition, the Kd in assay [13] and in assay [19] was > 30 µM (inactive) each time.
Take `CCCS(=O)(=O)Nc1ccc(F)c(C(=O)c2c[nH]c3ncc(-c4ccc(Cl)cc4)cc23)c1F` [VEMURAFENIB]: the Kd in assay [1], in [4], in assay [14], in [6], in assay [8] and in assay [9] was > 30 µM (inactive) each time. For the same compound, the Kd in [18], in [10], in assay [15], in [16], in [17] and in assay [13] was > 30 µM (inactive) throughout. The Kd in [19] is > 30 µM (inactive).
Regarding `N[C@@H]1CCCN(c2c(/C=C3\SC(=O)NC3=O)cccc2-c2ccccc2)C1`, the Kd in assay [1], in assay [2], in assay [3], in assay [6], in assay [9] and in [18] was > 30 µM (inactive) throughout. Moreover, the Kd in assay [10], in assay [15], in assay [16], in assay [11], in [12] and in assay [17] was > 30 µM (inactive) throughout. Moreover, the Kd in assay [13] and in [19] was > 30 µM (inactive) each time.
Turning to `COc1cc2nccc(Oc3ccc(NC(=O)NC4CC4)c(Cl)c3)c2cc1C(N)=O` [LENVATINIB], the Kd in [1], in [2], in assay [4], in assay [5], in assay [14] and in assay [6] was > 30 µM (inactive) each time. The Kd in [8] is > 30 µM (inactive); in assay [9], 0.217 µM (active); in assay [18], > 30 µM (inactive); in assay [15], > 30 µM (inactive); in assay [17] it was > 30 µM (inactive); in [13], > 30 µM (inactive). In assay [19], the Kd was > 30 µM (inactive).
On to `CCn1c(=O)c(-c2cc[nH]n2)cc2c(C)nc(N)nc21` [VOXTALISIB], for which the Kd in assay [1], in [2], in assay [6], in assay [7], in assay [8] and in assay [18] was > 30 µM (inactive) in each case. Further, the Kd in assay [10], in [15], in assay [16], in assay [12], in assay [17] and in assay [19] was > 30 µM (inactive) in each case.
With `C=CC(=O)N1CCC(Oc2cc3c(Nc4ccc(Cl)c(Cl)c4F)ncnc3cc2OC)CC1` [POZIOTINIB], the Kd in assay [1], in assay [2], in assay [3], in assay [4], in [5] and in [6] was > 30 µM (inactive) each time. Moreover, the Kd is > 30 µM (inactive) in assay [9], 1.19 µM (active) in assay [10] and > 30 µM (inactive) in assay [11].
For the compound `CC(C)Nc1cc(-c2c[nH]c(C(=O)N[C@H](CO)c3cccc(Cl)c3)c2)c(Cl)cn1` [ULIXERTINIB], the Kd in [2], in [14], in assay [7], in [8], in [9] and in [18] was > 30 µM (inactive) in each case. For the same compound, the Kd in [10], in assay [16], in assay [12], in assay [17] and in assay [19] was > 30 µM (inactive) each time.
